Literature values, collected in patent US20260256955A1, “LIQUID COMPOSITION OF COMPOUND I, PREPARATION METHOD THEREFOR, AND APPLICATION THEREOF” (BEIJING SINOTAU PHARMACEUTICAL TECHNOLOGY CO., LTD, priority 2022, published 2026).

Conditions: animals

CC(C)(C)n1ncc(OCc2cccc(Cn3cc(COCCOCC[18F])nn3)c2)c(Cl)c1=O [Compound I, 2-tert-butyl-4-chloro-5-((3-((4-((2-(2-fluoro[^18F]ethoxy)ethoxy)methyl)-1H-1,2,3-triazol-1-yl)methyl)benzyl)oxy)pyridazin-3(2H)-one]
cardiac uptake (15 minutes post-injection): high
liver uptake (15 minutes post-injection): low
heart-to-liver ratio (after 60 minutes): favorable
